Assay results taken from article PMC6266789 (Viruses, 2018).

System: NA of pH1N1 influenza virus recovered from lungs of IS mice
Format: biochemical, influenza A(H1N1)pdm09

CCOC(=O)C1=C[C@@H](OC(CC)CC)[C@H](NC(C)=O)[C@@H](N)C1 [Oseltamivir, oseltamivir]
oseltamivir resistance phenotype associated with H275Y by NAI assay: not detected
